Data published in publication PMC12670426 (Journal of Medicinal Chemistry, 2025).
Read-outs that look alike come from different tables or passages of the source.

Assays:
[1] = biological target: T1, human galectin-1 (Gal-1, full length) (Homo sapiens, UniProt P09382); assay: Competitive fluorescence polarization assay, Gal-1; format: binding
T1 construct: Gal-1 is a prototype galectin consisting of a single CRD and was used in full length; 6xHis tag with TEV protease site (N, cleaved yes); made in house; host or cells: BL21 Escherichia coli (pET-15b)
T1 sequence (P09382 2-135): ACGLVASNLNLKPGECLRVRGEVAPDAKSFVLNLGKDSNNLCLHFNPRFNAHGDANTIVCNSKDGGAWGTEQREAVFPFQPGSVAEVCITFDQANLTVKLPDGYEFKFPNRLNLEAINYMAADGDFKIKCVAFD
Experimental: (§1) Our investigation of the structure–activity relationship of N-aryl-N-lactosylamides started with an initial screening of substituted acetanilides (Table ). These compounds can be readily synthesized from a wide range of commercially available substituted anilines. Affinity was evaluated using a fluorescence polarization assay, which enables reliable determination of dissociation constants (K d) between small molecules and galectins. All inhibitors in this series were tested against the two most common human galectins: Gal-1 and Gal-3. Gal-1 is a prototype galectin consisting of a single CRD and was used in full length. In the case of Gal-3, which consists of the C-terminal CRD and N-terminal unfolded region, only the C-terminal domain was used (Gal-3C). Affinities were compared to methyl β-lactoside (β-LacOMe) as a baseline.
(§2) Fluorescence polarization experiments for determining inhibitor affinities were performed using the same instrumentation and settings as described for the direct binding experiments. […] The galectin–probe mixture was subsequently added using a Certus Flex liquid handler (Fritz Gyger AG, Switzerland) to reach a final volume of 5 μL. Anisotropy was measured after 30–60 min incubation at 25 °C. Inhibitor dissociation constants (K d) were calculated using Wang’s exact cubic model for competitive binding implemented in the BindCurve package. Protein and probe concentrations used in these competitive experiments are provided in the Supporting Information.
(§3) Competitive binding was modeled by Wang’s exact cubic model,3 which is written as […]
(§4) r = rmin + (rmax − rmin) 3 (6) […]
(§5) where r, rmin and rmax have the same meaning as in Equation 1. The coefficients a, b, and c are […]
(§6) a = Kd∗ + Kd + [L∗]T + [L]T − [R]T (7) b = Kd∗([L]T − [R]T) + Kd([L∗]T − [R]T) + Kd∗ Kd (8) […]
(§7) where Kd∗ is the dissociation constant of the probe, Kd is the dissociation constant of the […]
(§8) the unlabeled ligand, and [R]T is the total concentration of the receptor. The angle θ is defined […]
(§9) In the competitive binding experiments, the values of [L∗]T, [R]T and Kd∗ are known and [L]T is titrated. The values of minimal and maximal anisotropy rmin and rmax were fixed during fitting at the values of the minimal and maximal asymptotes obtained from the direct binding experiments. The value of Kd was calculated as the only unfixed parameter in the model.
(§10) Experimental constants used for the competitive fluorescence polarization experiments are […]
(§11) Table S2. Experimental constants used for competitive fluorescence polarization experiments. […]

[2] = biological target: T2, human galectin-3C (Gal-3C, C-terminal CRD of galectin-3) (Homo sapiens, UniProt P17931); assay: Competitive fluorescence polarization assay, Gal-3C; format: binding
T2 construct: only the C-terminal domain was used (Gal-3C); 6xHis tag with TEV protease site (N, cleaved yes); made in house; host or cells: BL21 Escherichia coli (pET-15b)
T2 sequence (P17931 118-248 limits assumed): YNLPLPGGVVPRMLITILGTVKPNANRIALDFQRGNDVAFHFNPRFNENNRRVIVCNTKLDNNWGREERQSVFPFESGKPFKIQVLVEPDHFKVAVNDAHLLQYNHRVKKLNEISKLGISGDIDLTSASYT
Experimental: as §1, §2, §3, §4, §5, §6, §7, §8, §9, §10, §11

[3] = CSV supplement, unrounded mean, read-out: Gal1_IC50_mean_uM
[4] = CSV supplement, unrounded mean, read-out: Gal1_Kd_mean_uM
[5] = competitive fluorescence polarization, mean ± SD, read-out: Kd Gal-1
[6] = four-parameter logistic model, mean ± SD, read-out: IC50 Gal-1
[7] = CSV supplement, unrounded mean, read-out: Gal3C_IC50_mean_uM
[8] = CSV supplement, unrounded mean, read-out: Gal3C_Kd_mean_uM
[9] = competitive fluorescence polarization, mean ± SD, read-out: Kd Gal-3C
[10] = four-parameter logistic model, mean ± SD, read-out: IC50 Gal-3C

| Structure (SMILES) | IC50 [1, 3] [µM] | Kd [1, 4] [µM] | improvement in affinity toward Gal-1 compared to β-LacOMe ([1]; compared to β-LacOMe) | Kd [1, 5] [µM] | IC50 [1, 6] [µM] | IC50 [2, 7] [µM] | Kd [2, 8] [µM] | improvement in affinity toward Gal-3C compared to β-LacOMe ([2]; compared to β-LacOMe) | Kd [2, 9] [µM] | IC50 [2, 10] [µM] |
| --- | --- | --- | --- | --- | --- | --- | --- | --- | --- | --- |
| CC(=O)N(c1ccccc1)[C@@H]1O[C@H](CO)[C@@H](O[C@@H]2O[C@H](CO)[C@H](O)[C@H](O)[C@H]2O)[C@H](O)[C@H]1O [Compound 3a, N-[4-O-(β-D-Galactopyranosyl)-β-D-glucopyranosyl]-N-phenylacetamide] | 908 | 586 | approximately 2 fold | 590 ± 80 | 910 ± 20 | 287 | 106 | approximately 2 fold | 110 ± 30 | 290 ± 1 |
| COC(=O)c1cc(N(C(C)=O)[C@@H]2O[C@H](CO)[C@@H](O[C@@H]3O[C@H](CO)[C@H](O)[C@H](O)[C@H]3O)[C@H](O)[C@H]2O)c2cc[nH]c2c1 [Compound 3ae, N-[4-O-(β-D-Galactopyranosyl)-β-D-glucopyranosyl]-N-[6-(methylcarboxy)-1H-indol-4-yl]acetamide] | 1030 | 637 | – | 640 ± 90 | 1000 ± 100 | 42.5 | 15.9 | – | 16 ± 2 | 43 ± 4 |
| C#Cc1cccc(N(C(C)=O)[C@@H]2O[C@H](CO)[C@@H](O[C@@H]3O[C@H](CO)[C@H](O)[C@H](O)[C@H]3O)[C@H](O)[C@H]2O)c1 [Compound 3c, N-[4-O-(β-D-Galactopyranosyl)-β-D-glucopyranosyl]-N-(3-ethynylphenyl)acetamide] | 1570 | 1010 | – | 1000 ± 70 | 1600 ± 300 | 500 | 182 | – | 180 ± 50 | 500 ± 30 |
| CC(=O)N(c1cccc(C(F)(F)F)c1)[C@@H]1O[C@H](CO)[C@@H](O[C@@H]2O[C@H](CO)[C@H](O)[C@H](O)[C@H]2O)[C@H](O)[C@H]1O [Compound 3d, N-[4-O-(β-D-Galactopyranosyl)-β-D-glucopyranosyl]-N-(3-trifluoromethylphenyl)acetamide] | 1040 | 560 | – | 560 ± 100 | 1000 ± 90 | 489 | 160 | – | 160 ± 30 | 490 ± 60 |
| CC(=O)N(c1ccc(F)cc1)[C@@H]1O[C@H](CO)[C@@H](O[C@@H]2O[C@H](CO)[C@H](O)[C@H](O)[C@H]2O)[C@H](O)[C@H]1O [Compound 3e, N-[4-O-(β-D-Galactopyranosyl)-β-D-glucopyranosyl]-N-(4-fluorophenyl)acetamide] | 595 | 322 | – | 320 ± 100 | 590 ± 70 | 275 | 87.1 | – | 87 ± 10 | 270 ± 10 |
| CC(=O)N(c1ccccc1F)[C@@H]1O[C@H](CO)[C@@H](O[C@@H]2O[C@H](CO)[C@H](O)[C@H](O)[C@H]2O)[C@H](O)[C@H]1O [Compound 3g, N-[4-O-(β-D-Galactopyranosyl)-β-D-glucopyranosyl]-N-(2-fluorophenyl)acetamide] | 931 | 507 | – | 510 ± 30 | 930 ± 8 | 282 | 93.2 | – | 93 ± 20 | 280 ± 20 |
| CC(=O)N(c1ccc(F)c(F)c1)[C@@H]1O[C@H](CO)[C@@H](O[C@@H]2O[C@H](CO)[C@H](O)[C@H](O)[C@H]2O)[C@H](O)[C@H]1O [Compound 3h, N-[4-O-(β-D-Galactopyranosyl)-β-D-glucopyranosyl]-N-(3,4-difluorophenyl)acetamide] | 597 | 399 | – | 400 ± 20 | 600 ± 20 | 284 | 127 | – | 130 ± 80 | 280 ± 100 |
| CC(=O)N(c1ccc(Cl)cc1)[C@@H]1O[C@H](CO)[C@@H](O[C@@H]2O[C@H](CO)[C@H](O)[C@H](O)[C@H]2O)[C@H](O)[C@H]1O [Compound 3j, N-[4-O-(β-D-Galactopyranosyl)-β-D-glucopyranosyl]-N-(4-chlorophenyl)acetamide] | 654 | 363 | – | 360 ± 30 | 650 ± 30 | 363 | 113 | – | 110 ± 10 | 360 ± 10 |
| CC(=O)N(c1ccc(Cl)c(Cl)c1)[C@@H]1O[C@H](CO)[C@@H](O[C@@H]2O[C@H](CO)[C@H](O)[C@H](O)[C@H]2O)[C@H](O)[C@H]1O [Compound 3k, N-[4-O-(β-D-Galactopyranosyl)-β-D-glucopyranosyl]-N-(3,4-dichlorophenyl)acetamide] | 659 | 376 | – | 380 ± 60 | 660 ± 8 | 346 | 112 | – | 110 ± 20 | 350 ± 40 |

Continued by falling IC50 [1, 3], values first:

| IC50 [1, 3] [µM] | Kd [1, 4] [µM] | improvement in affinity toward Gal-1 compared to β-LacOMe ([1]; compared to β-LacOMe) | Kd [1, 5] [µM] | IC50 [1, 6] [µM] | IC50 [2, 7] [µM] | Kd [2, 8] [µM] | improvement in affinity toward Gal-3C compared to β-LacOMe ([2]; compared to β-LacOMe) | Kd [2, 9] [µM] | IC50 [2, 10] [µM] | Structure (SMILES) |
| --- | --- | --- | --- | --- | --- | --- | --- | --- | --- | --- |
| 967 | 625 | – | 630 ± 100 | 970 ± 30 | 160 | 60.2 | – | 60 ± 10 | 160 ± 20 | CC(=O)N(c1cc(Br)cc(C(=O)O)c1)[C@@H]1O[C@H](CO)[C@@H](O[C@@H]2O[C@H](CO)[C@H](O)[C@H](O)[C@H]2O)[C@H](O)[C@H]1O [Compound 3ac, N-[4-O-(β-D-Galactopyranosyl)-β-D-glucopyranosyl]-N-(3-bromo-5-carboxyphenyl)acetamide] |
| 957 | 651 | – | 650 ± 100 | 960 ± 40 | 130 | 50 | – | 50 ± 9 | 130 ± 3 | CC(=O)N(c1cc(Cl)cc(C(=O)O)c1)[C@@H]1O[C@H](CO)[C@@H](O[C@@H]2O[C@H](CO)[C@H](O)[C@H](O)[C@H]2O)[C@H](O)[C@H]1O [Compound 3ab, N-[4-O-(β-D-Galactopyranosyl)-β-D-glucopyranosyl]-N-(3-carboxy-5-chlorophenyl)acetamide] |
| 919 | 481 | – | 480 ± 100 | 920 ± 90 | 404 | 133 | – | 130 ± 20 | 400 ± 50 | CC(=O)N(c1ccc(C)cc1)[C@@H]1O[C@H](CO)[C@@H](O[C@@H]2O[C@H](CO)[C@H](O)[C@H](O)[C@H]2O)[C@H](O)[C@H]1O [Compound 3b, N-[4-O-(β-D-Galactopyranosyl)-β-D-glucopyranosyl]-N-(4-methylphenyl)acetamide] |
| 899 | 571 | – | 570 ± 60 | 900 ± 100 | 191 | 68.7 | – | 69 ± 20 | 190 ± 9 | CC(=O)N(c1cccc(-c2cn(C)nn2)c1)[C@@H]1O[C@H](CO)[C@@H](O[C@@H]2O[C@H](CO)[C@H](O)[C@H](O)[C@H]2O)[C@H](O)[C@H]1O [Compound 3aa, N-[4-O-(β-D-Galactopyranosyl)-β-D-glucopyranosyl]-N-[3-(1-methyl-1H-1,2,3-triazol-4-yl)phenyl]acetamide] |
| 671 | 361 | – | 360 ± 20 | 670 ± 30 | 305 | 98.1 | – | 98 ± 3 | 300 ± 50 | CC(=O)N(c1cccc(F)c1)[C@@H]1O[C@H](CO)[C@@H](O[C@@H]2O[C@H](CO)[C@H](O)[C@H](O)[C@H]2O)[C@H](O)[C@H]1O [Compound 3f, N-[4-O-(β-D-Galactopyranosyl)-β-D-glucopyranosyl]-N-(3-fluorophenyl)acetamide] |
| 565 | 314 | – | 310 ± 90 | 570 ± 10 | 328 | 111 | – | 110 ± 8 | 330 ± 5 | CC(=O)N(c1cc(F)c(F)c(F)c1)[C@@H]1O[C@H](CO)[C@@H](O[C@@H]2O[C@H](CO)[C@H](O)[C@H](O)[C@H]2O)[C@H](O)[C@H]1O [Compound 3i, N-[4-O-(β-D-Galactopyranosyl)-β-D-glucopyranosyl]-N-(3,4,5-trifluorophenyl)acetamide] |
